Experimental data from patent US20200056157A1, “LIVER ORGANOID DISEASE MODELS AND METHODS OF MAKING AND USING SAME” (Children's Hospital Medical Center, priority 2016, published 2020).
Blank lines part the entries; values can stand above or below the molecule they belong to.

How the values were obtained:
P3NP = P3NP ELISA of HLO culture supernatant; type: cell-based, human; conditions: 800 μM OA, day 5
Description: (§1) Albumin, IL-6, and P3NP ELISA. To measure albumin secretion level of HLO, 200 μL of culture supernatant was collected from HLO embedded in Matrigel. For IL-6 and P3NP, 20-30 organoids were seeded and cultured on an ultra-low attachment multiwell plates 96 well plate (Corning). To define the exact number of organoids in each well and lastly normalize the secreted level for IL-6 and P3NP by the number, the organoids were captured on The KEYENCE BZ-X710 Fluorescence Microscope. The culture supernatants were collected at 24 hrs (for albumin), 96 hrs (for IL-6) and 120 hrs (P3NP) time points after the culture and stored at −80° C. until use. The supernatant was centrifuged at 1,500 rpm for 3 min and to pellet debris, and the resulting supernatant was assayed with Human Albumin ELISA Quantitation Set (Bethyl Laboratories, Inc., TX, USA), Human IL-6 ELISA Kit (Biolegend, CA, USA), and Human N-terminal procollagen III propeptide, PIIINP ELISA Kit (My BioSource, CA, USA) according to the manufacturer's instructions. Significance testing was conducted by Student's t-test.

[1] = test system: human liver organoid (HLO); assay: Masson trichrome stain of HLO; type: cell-based
Description: To further determine whether HLO progresses towards fibrosis-like condition, Applicant performed Masson trichrome stain on sHLO and cHLO. […] Moreover, ELISA of […] was also measured at day 5 of OA exposure. […] secretion was increased 2.8-fold in the culture media of 800 μM OA treated HLO when compared with the untreated (FIG. 4, J).

IL-6 = IL-6 ELISA of HLO culture supernatant; type: cell-based, human; conditions: 800 μM OA treated sHLO culture media
Description: as §1

THP-1 = THP-1 cell migration assay with HLO conditioned media; type: cell-based, human; conditions: OA-treated sHLO conditioned media (400, 800 μM OA), 24 hrs in transwells
Description: THP-1 cell migration assay. THP-1 cell, which was gifted from T. Suzuki, was maintained in Advanced DMEM/F12 (Thermo Fisher Scientific Inc.) containing 10% FBS. THP-1 floating cells were collected, and 200,000 cells were added with serum-free Advanced DMEM/F12 to the membrane chamber of the CytoSelect™ 96-Well Cell Migration Assay (5 μm, Fluorometric Format; Cell Biolabs, CA, USA). 10-20 HLO were cultured in HCM media including 0, 400, 800 uM OA with an ultra-low attachment 96 multi-well plate (Corning) for three days. To define the exact number of organoids in each well and lastly normalize the final migrated cells by the number, the organoids were captured on The KEYENCE BZ-X710 Fluorescence Microscope. 150 μL of culture supernatant of HLO was collected and added to the feeder tray of the kit. The kit was incubated at 37° C. for 24 h in a 5% CO2 cell culture incubator. Cells that had migrated were counted using Countess II FL Automated Cell Counter (Thermo Fisher Scientific Inc.). Significance testing was conducted by Student's t-test.

[2] = test system: human liver organoid (HLO); assay: HLO stiffness measurement by AFM; type: cell-based
Description: Applicant's preliminary qualitative analysis of smooth muscle actin immunostaining indicates dose dependent fibrosis progression by OA exposure (FIG. 2, H, I, and J). To gain more quantitative insights in a screenable format, Applicant thus assessed in the living state whether HLO fibrosis could increase the stiffness in a dose dependent fashion using micro-indentation with Atomic Force Microscopy (AFM). […] The Emedian values were 1.2 kPa, 1.6 kPa, 2.4 kPa and 2.8 kPa for 0, 200, 400, and 800 μM OA-treated organoids, respectively. Furthermore, difference between 90th percentile and 10th percentile (ΔP90-10) was 3.2 kPa for untreated organoids and 7.0 kPa for 800 μM OA-treated organoids was observed.
HLO stiffness measurement by AFM. HLOs treated with […] were used for stiffness measurement with a AFM (NanoWizard IV, JPK Instruments, Germany). The AFM head with a silicon nitride cantilever (CSC37, k=0.3 N/m, MikroMasch, Bulgaria) was mounted on a fluorescence stereo microscope (M205 FA, Leica, Germany) coupled with a Z-axis piezo stage (JPK CellHesion module, JPK Instruments, Germany), which allows the indentation measurement up to the depth of ˜100 μm. As a substrate for organoids, a fibronectin-coated dish was used. The tissue culture dish (p=34 mm, TPP Techno Plastic Products, Switzerland) was first incubated with a 1 μg/mL fibronectin solution (Sigma)) at 4° C. for overnight. Then, the tissue culture dish was washed twice by distilled water and dried for 1 hour. Thereafter, HLOs incubated with […] were deposited to the fibronectin-coated dish and incubated for 1 hour at 37° C. The sample dish was then placed onto the AFM stage, and force-distance curves in a 14×14 matrix in a 25×25 μm square were measured from each HLO. Finally, Young's moduli (E, Pa) of HLO were determined by fitting the obtained force-distance curves with the modified Hertz model (Sneddon, 1965). Dunn-Holland-Wolfe test was performed for significance testings.

[3] = test system: human liver organoid (HLO); assay: Triglyceride assay; type: cell-based; conditions: 800 μM OA, 3 days
Description: Triglyceride assay. For quantitative determination of triglycerides, HLO were isolated from one Matrigel drop and divided into HCM media in the presence or absence of oleic acid (800 μM). They were cultured on an ultra-Low attachment 6 multi-well plate for three days. Quantitative estimation of hepatic triglyceride accumulation was performed by an enzymatic assay of triglyceride mass using the EnzyChrom Triglyceride assay kit (Bioassay Systems, CA, USA).

IL-8 = assay: RT-qPCR of pro-inflammatory cytokine IL-8 in HLO; type: cell-based, human; conditions: 200 μM or 800 μM OA, normalized by 18S
Description: (§2) RNA isolation, RT-qPCR. RNA was isolated using the RNeasy mini kit (Qiagen, Hilden, Germany). Reverse transcription was carried out using the SuperScriptIII First-Strand Synthesis System for RT-PCR (Invitrogen, CA, USA) according to manufacturer's protocol. qPCR was carried out using TaqMan gene expression master mix (Applied Biosystems) on a QuantStudio 3 Real-Time PCR System (Thermo Fisher Scientific Inc.). All primers and probe information for each target gene was obtained from the Universal ProbeLibrary Assay Design Center (https://qpcr.probefinder.com/organism.jsp). Significance testing was conducted by Student's t-test.

[4] = test system: human liver organoid (HLO); assay: Lipids live-cell imaging (BODIPY, membrane dye) of FFA treated HLO; type: cell-based; conditions: for effectiveness in inducing lipid accumulation among FFAs (OA, LA, PA, SA): 800 μM, 3 days after FFA exposure, BODIPY
Description: Currently, free fatty acids (FFA) are widely used as an initiating factor to establish an in vitro lipotoxic hepatocyte model; however, fat accumulation is the only phenotype (Kanuri and Bergheim, 2013). […] Given the presence of hepatocyte-, stellate- and Kupffer-like cells with lipid metabolism function-associated genes indicated by global transcriptome analysis, Applicant hypothesized that FFA exposure naturally triggers an inflammation response and resulting fibrotic response in HLO. To test this hypothesis, Applicant treated HLO for 3 to 5 days with FFA. […] To first compare the effect of multiple FFAs including oleic acid (OA, 18:1 n9), linoleic acid (LA, 18:2), palmitic acid (PA, 16:0), and stearic acid (SA, 18:0) on lipids accumulation, live-cell imaging was performed with lipid dye BODIPY at 3 days after the FFA exposure. […] Considering that OA triggers massive lipid accumulation, the concentration of OA was varied (0, 200, 400, and 800 μM) to trigger inflammatory reaction in sHLO. […] In addition to increase in lipid accumulation, the size of lipid droplets was enlarged (FIG. 4, B). Hepatocyte ballooning (enlargement) was one of the pathological grading indicators to determine the nonalcoholic steatohepatitis (NASH) activity (NAS scoring), which was confirmed in 800 μM OA treated sHLO by live imaging of cellular membrane (FIG., 4B). Triglycerides, a main constituent of lipids accumulated in the liver, were also detected in 800 μM treated sHLO, but not in untreated sHLO (FIG. 4, D). […] As FIG. 9 indicates, neither E-cad positive nor negative cells derived spheroids produced P3NP and IL-6 secreted production and overexpressed the gene expression of inflammatory markers.
(§3) Phagocyte, lipids, ROS live-cell imaging. After being cultured in an ultra-low attachment 6 multi-well plate, 5-10 HLO were picked up and seeded in a Microslide 8 Well Glass Bottom plate (Ibidi, WI, USA) and subjected to live-cell staining. The following antibodies were used: pHrodo® Red S. aureus Bioparticles® Conjugate for Phagocyte activity (Thermo Fisher Scientific Inc.), BODIPY® 493/503 for lipids (Thermo Fisher Scientific Inc.), Di-8-ANEPPS for membrane (Thermo Fisher Scientific Inc.), and CellROX green reagent for ROS detection (Thermo Fisher Scientific Inc.). […] The final lipid droplet volume was calculated by IMARIS8 and normalized by each organoid size. Significance testing for lipid droplet volume and ROS production (%) was conducted by Student's t-test.
LPS and FFA exposure and OCA and FGF19 treatment. 20-30 HLO, which had been isolated from Matrigel and washed by 1×PBS, were divided into each condition and cultured on an ultra-low attachment 6 multi-well plates (Corning). HLO were cultured with LPS (Sigma), OA (Sigma), LA (Sigma), SA (Sigma), or PA (Sigma) and collected at day 1 and 3 (for LPS HLO) and at day 3 and 5 (for OA) after the culture. To test the inhibitory effect of OCA (INT-747, MedChem Express, NJ, USA) and human FGF19 recombinant (Sigma) on HLO, 20-30 HLO were cultured in HCM media in the presence or absence of oleic acid (800 μM), and 1 μM OCA and 40 ng/ml FGF19 were added into 800 μM OA condition. HLO were collected at day 3 for lipids live-cell imaging and at day 5 for stiffness measurement.

TNF-alpha = assay: RT-qPCR of pro-inflammatory cytokine TNF-alpha in HLO; type: cell-based, human; conditions: 200 μM or 800 μM OA, normalized by 18S
Description: as §2

[5] = test system: human iPSC-liver organoid; assay: RA-based liver organoid differentiation (organoid number, size, luminal structure); type: cell-based; conditions: 4 days RA
Description: To elucidate whether RA signaling has an impact on determining the lineage differentiation towards stromal cells, Applicant established a liver organoid model from human iPSCs by transient induction of RA. Applicant initially differentiated iPSCs to foregut spheroids through definitive endoderm (DE) specification as previously described (Spence et al., 2011). The foregut spheroids were mixed with the attached cells grown in the same well, and the mixture was embedded in Matrigel. […] The number of organoids was increased 1.8-fold in RA treated wells compared to untreated and the size was increased 1.5-fold after RA treatment (FIG. 1, B, C, and D). […] Of note, albumin secretion was maintained more than 40 days after day 20 when albumin was first detected (data not shown).
HLO induction. At day 7, spheroids and attached cells are gently pipetted to be delaminated from dishes. They were centrifuged at 800 rpm for 3 minutes, embedded in a 100% Matrigel drop on the dishes in Advanced DMEM/F12 with B27, N2 and 2 uM retinoic acid (RA; Sigma, MO, USA) after removing supernatant, and cultured for 4 days. After RA treatment, spheroids embedded in the Matrigel drop were cultured in Hepatocytes Culture Medium (HCM; Lonza, MD, USA) with 10 ng/mL hepatocyte growth factor (HGF; PeproTech, NJ, USA), 0.1 uM Dexamethasone (Dex; Sigma) and 20 ng/mL Oncostatin M (OSM; R&D Systems). Cultures for HLO induction were maintained at 37° C. in 5% CO2 with 95% air and the medium was replaced every 2-3 days. To analyze HLO (day 20-30), organoids were isolated from Matrigel by scratching and pipetting.

[6] = test system: human iPSC-liver organoid; assay: Albumin ELISA of organoid culture supernatant; type: cell-based; conditions: 4 days RA; supernatant collected in 24 hrs
Description: as §1

liver organoids = assay: ROS live-cell imaging of liver organoids; type: cell-based, human
Description: as §3

hepatocyte ballooning (enlargement) ([4]; 800 μM OA treated sHLO, live imaging of cellular membrane): confirmed
Structure (SMILES): CCCCCCCC/C=C\CCCCCCCC(=O)O [OA, oleic acid]
P3NP secretion compared with the untreated (P3NP): 2.8 fold
trichrome positive HLO ([1]; cHLO (OA 5 days)): significantly increased
trichrome positive HLO ([1]; sHLO (OA 3 days)): not observed
IL-6 secretion compared to the untreated (IL-6): 2.2 fold
THP-1 migration cells, increase (THP-1): up to 2 fold
Young's modulus, Emedian ([2]; 200 μM OA): 1.6 kPa
Young's modulus, Emedian ([2]; 400 μM OA): 2.4 kPa
Young's modulus, Emedian ([2]; 800 μM OA): 2.8 kPa
difference between 90th percentile and 10th percentile (ΔP90-10) of Young's modulus ([2]; 800 μM OA): 7.0 kPa
triglycerides [3]: detected
IL-8 gene expression increase (IL-8): 10 fold
lipid accumulation, increase in sHLO ([4]; 0, 200, 400, 800 μM OA, 3 days, dose dependent): up to 18 fold
effectiveness in inducing lipid accumulation among FFAs (OA, LA, PA, SA) [4]: most effective
size of lipid droplets ([4]; OA treated sHLO, 3 days): enlarged
TNF-alpha gene expression increase (TNF-alpha): 2 fold

Structure (SMILES): CC1=C(/C=C/C(C)=C/C=C/C(C)=C/C(=O)O)C(C)(C)CCC1 [RA, retinoic acid]
number of organoids, increase compared to untreated ([5]; day 20): 1.8 fold
organoid size, increase after treatment ([5]; day 20): 1.5 fold
organoids with internal luminal structure ([5]; day 25): 95%
albumin secretion [6]: 3.0 to 6.5 µg/mL

Structure (SMILES): CCCCCCCCCCCCCCCCCC(=O)O [SA, stearic acid]
effectiveness in inducing lipid accumulation among FFAs (OA, LA, PA, SA) [4]: least effective

Structure (SMILES): Oc1ccc(C=Cc2cc(O)cc(O)c2)cc1 [resveratrol]
effect on ROS production of liver organoids (liver organoids): No effectiveness
